Assay results: patent US20150148311A1, “NON-SYSTEMIC TGR5 AGONISTS” (Ardelyx, Inc., priority 2011, published 2015)

Columns and labels:
[1] = target: T1, human FXR (Homo sapiens, UniProt Q96RI1); test: FXR counter screen, cell-based luciferase reporter assay; conditions: cells expressing human FXR and FXR-responsive luciferase reporter, 0.4 to 50 μM test compound; read-out: pEC50 human FXR (converted)
T1 construct: purchased Indigo Biosciences (State College, Pa.)
T1 sequence (Q96RI1 1-486): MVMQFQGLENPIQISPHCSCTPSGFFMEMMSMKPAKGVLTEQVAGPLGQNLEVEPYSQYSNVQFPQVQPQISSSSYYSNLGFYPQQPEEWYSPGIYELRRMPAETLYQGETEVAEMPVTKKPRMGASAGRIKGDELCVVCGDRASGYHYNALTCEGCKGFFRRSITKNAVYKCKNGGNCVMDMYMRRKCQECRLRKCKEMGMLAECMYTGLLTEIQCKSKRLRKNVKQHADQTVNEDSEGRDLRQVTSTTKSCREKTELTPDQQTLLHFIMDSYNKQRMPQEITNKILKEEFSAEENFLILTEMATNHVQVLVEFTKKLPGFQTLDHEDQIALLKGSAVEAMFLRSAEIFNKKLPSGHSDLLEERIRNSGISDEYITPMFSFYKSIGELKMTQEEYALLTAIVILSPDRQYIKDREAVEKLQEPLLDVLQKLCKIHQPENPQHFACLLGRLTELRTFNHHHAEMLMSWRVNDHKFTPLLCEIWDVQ
Experimental: FXR: The ability of test compounds to activate FXR (NR1H4) was measured using a cell-based assay kit obtained from Indigo Biosciences (State College, Pa.).

[2] = target: T2, human IBAT (Homo sapiens, UniProt Q12908); test: IBAT counter screen, [3H]taurocholic acid uptake in IBAT-transfected HEK293 cells; assay type: cell-based; conditions: read-out: pEC50 human IBAT (converted)
T2 construct: expressed in transfected cells; host or cells: HEK293
T2 sequence (Q12908 1-348): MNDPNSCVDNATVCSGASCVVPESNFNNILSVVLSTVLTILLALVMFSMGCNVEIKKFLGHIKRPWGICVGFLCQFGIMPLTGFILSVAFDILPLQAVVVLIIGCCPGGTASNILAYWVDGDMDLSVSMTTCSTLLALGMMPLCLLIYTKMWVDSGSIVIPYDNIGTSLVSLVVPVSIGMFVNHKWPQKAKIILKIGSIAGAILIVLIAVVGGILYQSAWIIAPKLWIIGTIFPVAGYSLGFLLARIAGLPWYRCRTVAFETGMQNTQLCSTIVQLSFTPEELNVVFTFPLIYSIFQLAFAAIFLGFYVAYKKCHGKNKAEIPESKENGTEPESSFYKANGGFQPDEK
Experimental: Following a 40-min incubation, the solution was removed, and the cells were washed twice with uptake buffer. Cells were lysed by addition of 20 μL 0.1% Tween 80 followed by 100 μL scintillation fluid and counted using a TopCount (Perkin Elmer).

[3] = target: T3, endogenously expressed TGR5 in NCI H716 (Homo sapiens, UniProt Q8TDU6); test: Cell-based TGR5 assay, NCI-H716 cells endogenously expressing human TGR5, cAMP by HTRF; conditions: 30 min at 37 C, 22 nM to 50 μM, read-out: pEC50 endogenously expressed TGR5 in NCI H716 (converted)
T3 construct: human caecum carcinoma cell line NCI-H716 which endogenously expresses human TGR5; endogenous in cells; host or cells: NCI-H716
T3 sequence (Q8TDU6 1-330): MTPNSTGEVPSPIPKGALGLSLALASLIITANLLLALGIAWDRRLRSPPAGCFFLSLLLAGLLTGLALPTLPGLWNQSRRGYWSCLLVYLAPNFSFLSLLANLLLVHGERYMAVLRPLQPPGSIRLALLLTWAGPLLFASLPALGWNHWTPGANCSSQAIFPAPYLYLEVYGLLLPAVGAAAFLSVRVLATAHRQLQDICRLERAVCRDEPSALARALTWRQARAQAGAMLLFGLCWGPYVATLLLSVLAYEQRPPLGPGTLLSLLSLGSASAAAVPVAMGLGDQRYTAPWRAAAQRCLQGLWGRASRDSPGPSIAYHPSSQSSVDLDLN
Procedure, shortened: (§1)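 cAMP HTRF read-out, converted to concentration via standard curve, after a 30 min, 37 °C compound exposure in HBSS with 10 mM HEPES pH 7.4 and 0.5 mM IBMX, compounds serially diluted 3-fold from 10 mM DMSO stock then 100-fold. Cells: stable human TGR5 HEK293, or NCI-H716 expressing TGR5 endogenously.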

[4] = target: T4, human TGR5 (Homo sapiens, UniProt Q8TDU6); test: Cell-based TGR5 assay, HEK293 cells stably expressing human TGR5, cAMP by HTRF; conditions: HEK293 cells stably expressing human TGR5, 30 min at 37 C, 0.05 nM to 10 μM, read-out: pEC50 Human TGR5 (converted)
T4 construct: expressed in transfected cells
T4 sequence (Q8TDU6 1-330): T3 sequence (Q8TDU6 1-330)
Procedure, shortened: as §1

[5] = Compound concentration in gall bladder, LC-MS/MS, 8 h post dose; assay type: in vivo; conditions: 30 mg/kg; for Number of Mice with Gallbladder Concentration < LLOQ: mice below LLOQ / mice in group; for concentration at 8 h: male, C57BL/6, mouse, with contents, mice, gallbladder homogenate, read-out: Mean Example Gallbladder Concentration
Procedure, shortened: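 Gallbladder with its contents excised from isoflurane-anesthetized mice 8 h after dosing and homogenized in water. Homogenate diluted 1:5, precipitated with acetonitrile and measured by LC-MS/MS. Levels interpolated from per-compound standard curves in vehicle-treated gallbladder homogenate.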

[6] = Compound plasma concentration, LC-MS/MS, 8 h post dose; assay type: in vivo; conditions: 30 mg/kg; for Number of Mice with Plasma Concentration < LLOQ: mice below LLOQ / mice in group; for concentration at 8 h: male, C57BL/6, mouse, mice, plasma, read-out: Mean Example Plasma Concentration
Procedure, shortened: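 Blood was taken from the left ventricle 8 h after dosing, under isoflurane anesthesia, into EDTA tubes containing aprotinin and DPPIV inhibitor. Plasma was protein-precipitated with acetonitrile containing an internal standard, and supernatants were analyzed by LC-MS/MS against a plasma standard curve.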

[7] = tested on: total GLP-1; test: In vivo GLP-1 secretion, plasma total GLP-1 8 h post dose; conditions: Mus musculus, C57BL/6 male mice, food removed, plasma total GLP-1 eight hours after dosing, read-out: GLP-1 fold change over vehicle, Mean
Source text: (§2) Eight hours later, each mouse was heavily anesthetized with isoflurane, the peritoneal cavity was opened and the gallbladder, with its entire contents, was carefully excised and weighed. Blood was collected from the left ventricle of the heart and processed to plasma in EDTA-coated tubes containing aprotinin and DPPIV inhibitor for measurement of total GLP-1 (K150FCC; Meso Scales Discovery, Gaithersburg Md.).

[8] = tested on: C57BL/6 male mice; test: In vivo gallbladder measurement (weight) 8 h post dose; conditions: 30 mg/kg; for Gallbladder weight/body weight fold change over vehicle, Significance: 8 h, vs. vehicle, one-way ANOVA, Dunnett's test; for Gallbladder weight/body weight fold change over vehicle, Mean: food removed, eight hours after dosing
Source text: as §2

SMILES	EC50 [1]	EC50 [2]	EC50 [3]	EC50 [4]	Number of Mice with Gallbladder Concentration < LLOQ [5]	concentration at 8 h [5]	Number of Mice with Plasma Concentration < LLOQ [6]	concentration at 8 h [6]	response vs control in vivo at 30 mg/kg [7]	Gallbladder weight/body weight fold change over vehicle, Significance [8]	Gallbladder weight/body weight fold change over vehicle, Mean [8]
O=C(N1CCN(C2CC2)c2ccccc21)C1(OCc2cc(Cl)ccc2Cl)CC1 [Example 9, (4-cyclopropyl-3,4-dihydroquinoxalin-1(2H)-yl)(1-(2,5-dichlorobenzyloxyl)cyclopropyl)methanone]	> 50.1 µM	> 25.1 µM	126 to 1000 nM	< 100 nM	–	–	–	–	–	–	–
O=C(N1CCN(C2CC2)c2ccccc21)C1(NCc2cc(Cl)ccc2Cl)CC1 [Example 26, (4-cyclopropyl-3,4-dihydroquinoxalin-1(2H)-yl)(1-((2,5-dichlorobenzyl)amino)cyclopropyl)methanone]	> 50.1 µM	> 25.1 µM	< 100 nM	< 100 nM	0/8	30 nM	0/8	9.1 ng/mL	160%	* (* p < 0.05 vs. vehicle; One-way ANOVA followed by Dunnett's test)	1.6 fold change over vehicle
O=C(N1CCN(C2CC2)c2ccccc21)C1(COc2cc(Cl)ccc2Cl)CC1 [Example 32, 1-cyclopropyl-4-[[1-(2,5-dichlorophenoxymethyl)cyclopropyl]carbonyl]-1,2,3,4-tetrahydroquinoxaline]	> 50.1 µM	–	126 to 1000 nM	< 100 nM	–	–	–	–	–	–	–
CN(C[C@H](O)[C@@H](O)[C@H](O)[C@H](O)CO)C(=O)CCc1cc(Cl)c(OCC2(C(=O)N3CCN(C4CC4)c4ccccc43)CC2)cc1Cl [Example 34, 3-[2,5-dichloro-4-([1-[(4-cyclopropyl-1,2,3,4-tetrahydroquinoxalin-1-yl)carbonyl]cyclopropyl]methoxy)phenyl]-N-methyl-N-[(2S,3R,4R,5R)-2,3,4,5,6-pentahydroxyhexyl]propanamide]	> 50.1 µM	–	1260 to 50100 nM	126 to 1000 nM	–	–	–	–	–	–	–
O=C(CCc1cc(Cl)c(OCC2(C(=O)N3CCN(C4CC4)c4ccccc43)CC2)cc1Cl)NC[C@H](O)[C@@H](O)[C@H](O)[C@H](O)CO [Example 75, 3-[2,5-dichloro-4-([1-[(4-cyclopropyl-1,2,3,4-tetrahydroquinoxalin-1-yl)carbonyl]cyclopropyl]methoxy)phenyl]-N-[(2S,3R,4R,5R)-2,3,4,5,6-pentahydroxyhexyl]propanamide]	> 50.1 µM	–	126 to 1000 nM	126 to 1000 nM	–	–	–	–	–	–	–
CN(C[C@H](O)[C@@H](O)[C@H](O)[C@H](O)CO)C(=O)CCc1cc(Cl)c(COC2(C(=O)N3CCN(C4CC4)c4ccccc43)CC2)cc1Cl [Example 80, 3-[2,5-dichloro-4-([1-[(4-cyclopropyl-1,2,3,4-tetrahydro-quinoxalin-1-yl)carbonyl]cyclopropoxy]methyl)phenyl]-N-methyl-N-[(2S,3R,4R,5R)-2,3,4,5,6-pentahydroxyhexyl]propanamide]	> 50.1 µM	–	126 to 1000 nM	< 100 nM	–	–	–	–	–	–	–

Continued, in another order:

EC50 [1]	EC50 [2]	EC50 [3]	EC50 [4]	Number of Mice with Gallbladder Concentration < LLOQ [5]	concentration at 8 h [5]	Number of Mice with Plasma Concentration < LLOQ [6]	concentration at 8 h [6]	SMILES	response vs control in vivo at 30 mg/kg [7]	Gallbladder weight/body weight fold change over vehicle, Significance [8]	Gallbladder weight/body weight fold change over vehicle, Mean [8]
> 50.1 µM	–	< 100 nM	< 100 nM	–	–	–	–	O=C(CCc1cc(Cl)c(COC2(C(=O)N3CCN(C4CC4)c4ccccc43)CC2)cc1Cl)NC[C@H](O)[C@@H](O)[C@H](O)[C@H](O)CO [Example 88, 3-[2,5-dichloro-4-([1-[(4-cyclopropyl-1,2,3,4-tetrahydroquinoxalin-1-yl)carbonyl]cyclopropoxy]methyl)phenyl]-N-[(2S,3R,4R,5R)-2,3,4,5,6-pentahydroxyhexyl]propanamide]	–	–	–
–	–	126 to 1000 nM	< 100 nM	0/8	100 nM	8/8	< 0.5 ng/mL	CN(C[C@H](O)[C@@H](O)[C@H](O)[C@H](O)CO)C(=O)NCCCCOc1cc(Cl)c(CN2CSC[C@H]2C(=O)N2CCN(C3CC3)c3ccccc32)cc1Cl [Example 191]	150%	n.s.	1.0 fold change over vehicle
–	> 25.1 µM	–	< 100 nM	0/8	900 nM	5/8	5.2 ng/mL	O=C(CCCCc1cc(Cl)c(COC2(C(=O)N3CCN(C4CC4)c4ccccc43)CC2)cc1Cl)NC[C@H](O)[C@@H](O)[C@H](O)[C@H](O)CO [Example 193]	90%	n.s.	1.1 fold change over vehicle
–	> 25.1 µM	< 100 nM	< 100 nM	0/8	100 nM	2/8	0.7 ng/mL	O=C(CCCCc1cc(Cl)c(CNC2(C(=O)N3CCN(C4CC4)c4ccccc43)CC2)cc1Cl)NC[C@H](O)[C@@H](O)[C@H](O)[C@H](O)CO [Example 218]	140%	n.s.	1.0 fold change over vehicle
